According to PubChem BioAssay AID488994 (Sanford-Burnham Center for Chemical Genomics, 2010):
Active and inactive are the calls of the source.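 The calls were made as follows: active = IC50 below 20 µM in the dose response test; inactive = the rest.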

Biological target: Type-1 angiotensin II receptor (Homo sapiens) (UniProt P30556)
Experiment: AT1 receptor antagonists, beta-arrestin recruitment, SAR follow-up, selectivity assay for APJ antagonist project, cell-based, CHO-K1 PathHunter, luminescence, set 2 (AID 488994)
Conditions: CHO-K1 AGTR1 PathHunter beta-arrestin

Type-1 angiotensin II receptor (Homo sapiens), sequence (P30556 whole entry, looked up): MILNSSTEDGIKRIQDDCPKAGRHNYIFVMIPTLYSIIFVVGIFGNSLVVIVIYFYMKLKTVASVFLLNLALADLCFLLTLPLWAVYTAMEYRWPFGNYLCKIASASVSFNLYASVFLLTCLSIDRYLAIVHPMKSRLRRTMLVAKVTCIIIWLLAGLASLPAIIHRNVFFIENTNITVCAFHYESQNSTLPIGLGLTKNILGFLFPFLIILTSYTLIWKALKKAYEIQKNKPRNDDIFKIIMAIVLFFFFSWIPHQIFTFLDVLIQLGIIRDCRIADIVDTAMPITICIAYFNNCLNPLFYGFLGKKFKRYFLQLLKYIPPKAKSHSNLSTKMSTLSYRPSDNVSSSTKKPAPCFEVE

With `O=C(Nc1ccc(CSc2ncccn2)cc1)c1ccccc1` the IC50 was > 79 µM (inactive).

In the case of `Cc1ccnc(SCc2cc(=O)c(OCc3ccc(Cl)c([N+](=O)[O-])c3)co2)n1`, the IC50 is reported as > 79 µM (inactive).

With `Cc1ccnc(SCc2cc(=O)c(OC(=O)C(C)C)co2)n1` the IC50 was > 79 µM (inactive).

In the case of `COc1cc(CSc2nc(C)cc(C)n2)ccc1OC(=O)c1ccc([N+](=O)[O-])cc1`, the IC50 is reported as > 79 µM (inactive).

With `Cc1ccnc(SCc2cc(=O)c(OC(=O)C(C)(C)C)co2)n1` the IC50 was > 79 µM (inactive).

With `COc1cc(CSc2nc(C)cc(C)n2)ccc1OC(=O)c1ccccc1` the IC50 was > 79 µM (inactive).

For `COc1cc(CSc2nc(C)cc(C)n2)ccc1OC(=O)c1cccnc1`, the IC50 was > 79 µM (inactive).

`CC(=O)Oc1coc(CSc2nccc(C)n2)cc1=O` was tested, and the IC50 was > 79 µM (inactive).

With `Cc1ccnc(SCc2cc(=O)c(OC(=O)c3ccc([N+](=O)[O-])o3)co2)n1` the IC50 was > 79 µM (inactive).

With `Cc1ccnc(SCc2cc(=O)c(OC(=O)c3ccno3)co2)n1` the IC50 was > 79 µM (inactive).
